Source: patent publication US6911443B2 (Bayer Aktiengesellschaft, priority 2000, dated 2005)

What follows are molecules tested against T1, human Syk (GST-Syk) (Homo sapiens, UniProt P43405) (assay: Syk tyrosine kinase inhibitory assay). Settings: Table 11; read-out: Activity grade.
T1 construct: A cDNA fragment encoding human Syk openreading frame was cloned; made in house; host or cells: Sf21 insect cells (baculovirus, transfer vector pAcG2T)
Assay type: biochemical
In short: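 Readout: streptavidin-captured biotin-AL peptide probed with europium-4G10 anti-phosphotyrosine, time-resolved fluorescence (ex 340/em 615 nm). Reaction ran 1 h at room temperature with 30 μM ATP, 3 μM peptide, 0.65 nM Sf21-expressed GST-Syk and 0.25% DMSO, pH 8.0.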

IC50, < 500 nM:
COc1ccc(-c2cc3nccn3c(Nc3ccc4[nH]ncc4c3)n2)cc1OC [Example 12-2]
COc1ccc(-c2cc3nccn3c(Nc3ccccn3)n2)cc1OC [Example 12-3]
COc1ccc(Nc2nc(-c3ccc(OC)c(OC)c3)cc3nccn23)cn1 [Example 12-4]
COc1ccc(-c2cc3nccn3c(Nc3cccnc3)n2)cc1OC [Example 12-7]
COc1ccc(-c2cc3nccn3c(Nc3ccncc3)n2)cc1OC [Example 12-8]
COc1ccc(-c2cc3nccn3c(Nc3ccc(Br)cn3)n2)cc1OC [Example 12-9]
COc1ccc(-c2cc3nccn3c(Nc3ccccc3)n2)cc1O [Example 12-10]
COc1ccc(-c2cc3nccn3c(Nc3cccc(Cl)c3)n2)cc1OC [Example 12-11]
COc1ccc(-c2cc3nccn3c(Nc3ccc(Br)cc3)n2)cc1OC [Example 12-12]
COc1ccc(-c2cc3nccn3c(Nc3cc(OC)c(OC)c(OC)c3)n2)cc1OC [Example 12-14]
COc1ccc(Nc2nc(-c3ccc(OC)c(OC)c3)cc3ncnn23)cc1 [Example 12-15]
COc1cc(-c2cc3nccn3c(Nc3ccccc3)n2)ccc1OCCCN1CCOCC1 [Example 12-16]
COc1ccc(-c2cc3nccn3c(Nc3ccccc3)n2)cc1OC(C)=O [Example 12-17]
COc1cc(-c2cc3nccn3c(Nc3ccccc3)n2)ccc1O [Example 12-19]
CCOCCOc1ccc(-c2cc3nccn3c(Nc3ccccc3)n2)cc1OC [Example 12-20]
CCOc1ccc(-c2cc3nccn3c(Nc3ccccc3)n2)cc1OCC [Example 12-23]
COc1ccc(-c2cc3nccn3c(Nc3ccccc3)n2)cc1OCCN1CCOCC1 [Example 12-25]
COc1cc(-c2cc3nccn3c(Nc3ccccc3)n2)ccc1OCCN1CCOCC1 [Example 12-26]
CCOCCOc1cc(-c2cc3nccn3c(Nc3ccccc3)n2)ccc1OC [Example 12-28]
COc1ccc(-c2cc3nccn3c(Nc3cccc(N)n3)n2)cc1OC [Example 12-29]
COc1ccc(-c2cc3nccn3c(Nc3ccc(Cl)nc3)n2)cc1OC [Example 12-30]
COc1ccc(-c2cc3nccn3c(Nc3ccccc3)n2)cc1[N+](=O)[O-] [Example 12-32]
COc1cc(-c2cc3nccn3c(Nc3ccccc3)n2)ccc1OC(C)=O [Example 12-33]
COc1cc(-c2cc3nccn3c(Nc3ccccc3)n2)ccc1OCCCN1CCSCC1 [Example 12-34]
COc1cc(-c2cc3nccn3c(Nc3ccccc3)n2)ccc1OCCCN1CCN(C)CC1 [Example 12-36]
COc1ccc(Nc2nc(-c3ccc(N4CCOCC4)c(OC)c3)cc3nccn23)cc1 [Example 12-37]
COc1ccc(Nc2nc(-c3ccc(NCCCN4CCOCC4)c(OC)c3)cc3nccn23)cc1 [Example 12-38]
COc1cc(-c2cc3nccn3c(Nc3ccccc3)n2)ccc1NCCCN1CCN(C)CC1 [Example 12-39]
COc1cc(-c2cc3nccn3c(Nc3ccccc3)n2)ccc1NCCCN1CCCC1=O [Example 12-40]
COCCN(C)c1ccc(-c2cc3nccn3c(Nc3ccccc3)n2)cc1OC [Example 12-41]
COCCN(C)c1ccc(-c2cc3nccn3c(Nc3ccc(C)cc3)n2)cc1OC [Example 12-42]
COCCN(C)c1ccc(-c2cc3nccn3c(Nc3ccc(C(F)(F)F)cc3)n2)cc1OC [Example 12-43]
COCCN(C)c1ccc(-c2cc3nccn3c(Nc3ccccc3S(C)(=O)=O)n2)cc1OC [Example 12-44]
COc1ccc(-c2cc3nccn3c(Nc3cnccc3C(N)=O)n2)cc1OC [Example 12-45]
COCCN(C)c1ccc(-c2cc3nccn3c(Nc3ccc(Br)cc3)n2)cc1OC [Example 12-46]
COc1cc(-c2cc3nccn3c(Nc3ccc(C)cc3)n2)ccc1N1CCOCC1 [Example 12-47]
COc1cc(-c2cc3nccn3c(Nc3ccc(Cl)cn3)n2)ccc1N1CCOCC1 [Example 12-48]
COc1cc(-c2cc3nccn3c(Nc3ccc(C(F)(F)F)cc3)n2)ccc1N1CCOCC1 [Example 12-49]
CCSc1nc(-c2ccc(N(C)CCOC)c(OC)c2)cc2nccn12 [Example 12-50]
COCCN(C)c1ccc(-c2cc3nccn3c(Nc3ccc(OC)cc3)n2)cc1OC [Example 12-51]
COc1ccc(Nc2nc(-c3ccc(N(C)C)c(OC)c3)cc3nccn23)cc1 [Example 12-52]
COc1cc(-c2cc3nccn3c(Nc3ccc(Br)cc3)n2)ccc1N1CCOCC1 [Example 12-53]
COc1cc(-c2cc3nccn3c(Nc3ccccc3)n2)ccc1N1CCOCC1 [Example 12-54]
COc1ccc(Nc2nc(-c3ccc(N(C)CCCN4CCOCC4)c(OC)c3)cc3nccn23)cc1 [Example 12-55]
COCCCN(C)c1ccc(-c2cc3nccn3c(Nc3ccc(OC)cc3)n2)cc1OC [Example 12-56]
COc1cc(-c2cc3nccn3c(Nc3ccccc3S(C)(=O)=O)n2)ccc1N1CCOCC1 [Example 12-57]
COc1cc(-c2cc3nccn3c(Nc3ccc4cn[nH]c4c3)n2)ccc1N1CCOCC1 [Example 12-59]
COc1cc(-c2cc3nccn3c(Nc3cccc(S(C)(=O)=O)c3)n2)ccc1N1CCOCC1 [Example 12-60]

IC50, 500 to 2000 nM:
COc1ccc(-c2cc3nccn3c(Nc3ccc(CCN4CCOCC4)cc3)n2)cc1OC [Example 12-1]
COC(=O)c1ccc(Nc2nc(-c3ccc(OC)c(OC)c3)cc3nccn23)s1 [Example 12-5]
CCOc1ccc2nc(Nc3nc(-c4ccc(OC)c(OC)c4)cc4nccn34)sc2c1 [Example 12-6]
COc1ccc(-c2cc3nccn3c(Nc3cccc(C(F)(F)F)c3)n2)cc1OC [Example 12-13]
COc1cc(-c2cc3nccn3c(Nc3ccccc3)n2)ccc1OCc1ccccc1 [Example 12-18]
c1ccc(Nc2nc(-c3ccc4c(c3)OCCO4)cc3nccn23)cc1 [Example 12-21]
c1ccc(Nc2nc(-c3ccc4c(c3)OCO4)cc3nccn23)cc1 [Example 12-22]
CCOCCOc1ccc(-c2cc3nccn3c(Nc3ccccc3)n2)cc1OCCOCC [Example 12-24]
COc1ccc(-c2cc3nccn3c(NC3=NNCS3)n2)cc1OC [Example 12-31]
COc1ccc(-c2cc3nccn3c(Nc3cnccc3C(N)=O)n2)cc1OC [Example 12-61]

IC50, 2000 to 10000 nM:
COc1ccc(-c2cc3nccn3c(Nc3ccccc3)n2)cc1OCc1ccccc1 [Example 12-27]
CCN(CC)CCOc1ccc(-c2cc3nccn3c(Nc3ccccc3)n2)cc1OC [Example 12-35]

Same assay, conditions: Table 17; IC50 classes; read-out: Activity grade

IC50, < 500 nM:
COc1ccc(-c2cc3nccn3c(Nc3cc(N)ccc3C(N)=O)n2)cc1OC [Example 11]
CCN(CC)CCNc1ccc(C(N)=O)c(Nc2nc(-c3ccc(OC)c(OC)c3)cc3nccn23)c1 [Example 12]

Same assay, conditions: in vitro; compounds as yielded by solid phase synthesis, purity about 40 to 90%

Activity grade (IC50 class), C-D:
COc1ccc(-c2cc3nccn3c(Sc3ccc(CC(=O)O)cc3)n2)cc1OC [Example 13-19]

Same assay, conditions: in vitro; compounds as yielded by solid phase synthesis, purity about 40 to 90%; read-out: Activity grade (IC50 class)

IC50, 500 to 2000 nM:
COC(=O)CCCc1ccc(N(C)c2nc(-c3ccc(OC)c(OC)c3)cc3nccn23)cc1 [Example 11-125]
COc1ccc(-c2cc3nccn3c(Sc3cc(C)ccc3C)n2)cc1OC [Example 13-1]
COc1ccc(-c2cc3nccn3c(Sc3c(Cl)cccc3Cl)n2)cc1OC [Example 13-10]

IC50, 2000 to 10000 nM:
COc1ccc(-c2cc3nccn3c(Sc3cccc(Cl)c3Cl)n2)cc1OC [Example 13-5]
COc1ccc(-c2cc3nccn3c(Sc3c(C)cccc3C)n2)cc1OC [Example 13-9]

IC50, < 500 nM:
COc1ccc(-c2cc3nccn3c(Nc3ccc(S(C)(=O)=O)cc3)n2)cc1OC [Example 11-127]
COc1ccc(-c2cc3nccn3c(Nc3ccc(C(N)=O)c(N)c3)n2)cc1OC [Example 11-129]
COc1ccc(-c2cc3nccn3c(Nc3cc(N)ccc3C(N)=O)n2)cc1OC [Example 11]
CCN(CC)CCNc1ccc(C(N)=O)c(Nc2nc(-c3ccc(OC)c(OC)c3)cc3nccn23)c1 [Example 12]
COc1ccc(-c2cc3nccn3c(Sc3ccccc3OC)n2)cc1OC [Example 13-2]
COc1ccc(-c2cc3nccn3c(Sc3cccc(N)c3)n2)cc1OC [Example 13-3]
COc1ccc(-c2cc3nccn3c(Sc3ccc(N)cc3)n2)cc1OC [Example 13-4]
COc1ccc(-c2cc3nccn3c(Sc3ccccc3Br)n2)cc1OC [Example 13-6]
COc1ccc(-c2cc3nccn3c(Sc3ccccc3CO)n2)cc1OC [Example 13-7]
COc1ccc(-c2cc3nccn3c(Sc3cc(OC)c(OC)c(OC)c3)n2)cc1OC [Example 13-8]
COc1ccc(-c2cc3nccn3c(Sc3nc4ccccc4s3)n2)cc1OC [Example 13-11]
COc1ccc(-c2cc3nccn3c(Sc3nccn3C)n2)cc1OC [Example 13-12]
COc1ccc(-c2cc3nccn3c(Sc3ncccn3)n2)cc1OC [Example 13-13]
COc1ccc(-c2cc3nccn3c(Sc3ccc4c(c3)CNCC4)n2)cc1OC [Example 13-14]
COc1ccc(-c2cc3nccn3c(Sc3ccc(N4CCN(C)CC4)cc3)n2)cc1OC [Example 13-16]
